Source: patent US7371734B2, “Oligonucleotide compositions and their use for the modulation of immune responses” (Bioniche Life Sciences Inc., priority 2002, dated 2008)
Marks after values point to notes of the source that are not given here.

Experiments:
Assay type in all cases: cell-based
Human dendritic cells [1] = test: Induction of IL-1beta production by DC (ELISA); details: 100 μg, 48 hours
How it was run: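 Cells from three donors, seeded at 1.0×10^5 cells/ml, were exposed for 48 hours to 100 μg of 6-base polynucleotides. IL-1beta in culture supernatant measured by ELISA; values are fold increase over untreated control cells.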

Human dendritic cells [2] = test: Induction of IL-12 production by DC (ELISA); details: 100 μg, 48 hours
How it was run: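 Human DCs from three donors, 1.0×10^5 cells/ml, exposed 48 h to 100 μg of 6-base polynucleotides. IL-12 in culture supernatant measured by ELISA. Values given as fold increase over untreated control cells.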

Human dendritic cells [3] = test: CD86 levels at the DC cell surface (flow cytometry); details: 100 μg, 48 hours
How it was run: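 Human DCs (from donors B and C) at 1.0×10^5 cells/ml were exposed 48 h to 100 μg of 6-base polynucleotides. Surface CD86 was measured by flow cytometry with a PE-conjugated anti-CD86 mAb. Values are % CD86^hi DC after treatment.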

Human dendritic cells [4] = test: Endocytosis of FITC-dextran by DC; details: DC from individual B, 100 μg, 24 hours, untreated control = 100
Method: Human dendritic cells were obtained from Clonetics (San Diego, Calif., USA) and were cultured in the medium recommended by Clonetics. DC were obtained from three different individuals (see Table 1). Major histocompatability typing was performed on each of these individuals and several of the HLA (human leukocyte antigens) types are shown.
DC from individual B were seeded in 1.0 ml at 1.0×10^5 cells/ml in 6-well flat-bottomed tissue culture plates for 24 hours with 1 mg/ml of FITC-dextran (20 kDa; Sigma-Aldrich) in the absence or presence of 100 μg of 6 base N2A, N2B, N3A, N3B, N5A, N5B, and N6B polynucleotides at 4° C. (control cell surface binding of FITC-dextran) and 37° C. (to assess endocytosis). Cells were washed three times with ice-cold phosphate buffered saline and analyzed by flow cytometry using CELLQuest Pro. Results are expressed as relative endocytic rate (normalized Δ Mean Fluorescence Value (Δ MFV)). Δ MFV=MFV of DC exposed to FITC-dextran at 37° C.−MFV of DC exposed to FITC-dextran at 4° C. Δ MFV=(ΔMFVsequence/ΔMFVcontrol)×100.

Human dendritic cells [5] = test: Increase in cell size and granularity of DC (flow cytometry); details: 100 μg polynucleotide, 48 hours
How it was run: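 Human dendritic cells from three donors, seeded at 1.0×10^5 cells/ml and exposed 48 hours to 100 μg of 6-base 3-OH, 5-OH polynucleotides. Flow cytometry; percentage of cells with forward scatter >500 units and side scatter >400 units.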

Human dendritic cells [6] = test: Induction of IFN-gamma production by DC (ELISA); details: 100 μg, 48 hours
How it was run: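 Dendritic cells from three donors (1.0×10^5 cells/ml) were incubated 48 h with 100 μg of each polynucleotide. IFN-gamma in culture supernatant was measured by ELISA. Values are fold increase over untreated control cells.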

Human dendritic cells [7] = test: CD40 levels at the DC cell surface (flow cytometry); details: 100 μg, 48 hours
How it was run: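 DCs from two donors, seeded at 1.0×10^5 cells/ml, were exposed for 48 h to 100 μg of 6-base polynucleotides. Surface CD40 was then measured by flow cytometry with a FITC anti-CD40 mAb. Values are the percentage of CD40^hi DC, meaning above-baseline CD40 expression.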

Row | Substance | IL-1beta production by DC (fold increase compared to untreated DC) (Human dendritic cells [1]; DC isolated from individual A) | IL-1beta production by DC (fold increase compared to untreated DC) (Human dendritic cells [1]; DC isolated from individual B) | IL-1beta production by DC (fold increase compared to untreated DC) (Human dendritic cells [1]; DC isolated from individual C) | IL-12 production by DC (fold increase compared to untreated DC) (Human dendritic cells [2]; DC isolated from individual A) | IL-12 production by DC (fold increase compared to untreated DC) (Human dendritic cells [2]; DC isolated from individual B) | IL-12 production by DC (fold increase compared to untreated DC) (Human dendritic cells [2]; DC isolated from individual C) | The percentage of CD86^hi DC following treatment (Human dendritic cells [3]; DC from individual B) | The percentage of CD86^hi DC following treatment (Human dendritic cells [3]; DC from individual C) | Relative endocytic rate (normalized Δ MFV) (Human dendritic cells [4]) | Percentage of DC showing a FCS > 500 units and a SSC > 400 units (Human dendritic cells [5]; DC isolated from individual A) | Percentage of DC showing a FCS > 500 units and a SSC > 400 units (Human dendritic cells [5]; DC isolated from individual B) | Percentage of DC showing a FCS > 500 units and a SSC > 400 units (Human dendritic cells [5]; DC isolated from individual C) | IFN-gamma production by DC (fold increase compared to untreated DC) (Human dendritic cells [6]; DC isolated from individual A) | IFN-gamma production by DC (fold increase compared to untreated DC) (Human dendritic cells [6]; DC isolated from individual B) | IFN-gamma production by DC (fold increase compared to untreated DC) (Human dendritic cells [6]; DC isolated from individual C) | The percentage of CD40^hi DC following treatment (Human dendritic cells [7]; DC from individual B) | The percentage of CD40^hi DC following treatment (Human dendritic cells [7]; DC from individual C)
1 | 5′GGGTGG3′ [N3A] | 1.1 fold | 1.1 fold | 1.0 fold | 1.0 fold | 1.0 fold | 1.0 fold | 16% | 37** % | 156 | 8% | 15% | 31% | 1.0 fold | 1.0 fold | 1.0 fold | 36** % | 20%
2 | 5′GGGTGG3′ [N3B] | 1.7 fold | 4.4 fold | 2.1 fold | 5.2 fold | 17.3 fold | 14.4 fold | 30** % | 39** % | 211 | 28% | 25% | 28% | 2.0 fold | 4.5 fold | 1.3 fold | 33** % | 14%
3 | 5′GGGAGG3′ [N6B] (DNA, backbone not given here; further chemistry not fully specified) | 1.0 fold | 1.1 fold | 1.0 fold | 1.3 fold | 1.4 fold | 4.1 fold | 15% | 33% | 23 | 4% | 17% | 36% | 1.1 fold | 1.0 fold | 1.1 fold | 28** % | 15%
4 | 5′GGGAGG3′ [N6A] (unmodified DNA) | 1.0 fold | 1.1 fold | 0.9 fold | 1.0 fold | 1.0 fold | 1.0 fold | 24** % | 18% | – | 9% | 22% | 21% | 1.0 fold | 1.0 fold | 1.0 fold | 35** % | 15%
